Reference: ChEMBL document CHEMBL1155533, “Substituted 2H-isoquinolin-1-ones as potent Rho-kinase inhibitors: part 3, aryl substituted pyrrolidines” (Bioorg Med Chem Lett, 2010)

Assays:
[1] = target: Rho-associated protein kinase 2 (Homo sapiens, UniProt O75116); experiment: Inhibition of ROCK2 by luciferase based ATP detection assay
Aorta = experiment: Vasorelaxant activity in rat aortic ring assessed as inhibition of phenylephrine-induced contraction; assay type: functional, tissue-based
in vitro = conditions: human
[2] = target: Serine/threonine-protein kinase N2 (Homo sapiens, UniProt Q16513); experiment: Inhibition of PRKCL2
Sequence of Serine/threonine-protein kinase N2 (Q16513 whole entry): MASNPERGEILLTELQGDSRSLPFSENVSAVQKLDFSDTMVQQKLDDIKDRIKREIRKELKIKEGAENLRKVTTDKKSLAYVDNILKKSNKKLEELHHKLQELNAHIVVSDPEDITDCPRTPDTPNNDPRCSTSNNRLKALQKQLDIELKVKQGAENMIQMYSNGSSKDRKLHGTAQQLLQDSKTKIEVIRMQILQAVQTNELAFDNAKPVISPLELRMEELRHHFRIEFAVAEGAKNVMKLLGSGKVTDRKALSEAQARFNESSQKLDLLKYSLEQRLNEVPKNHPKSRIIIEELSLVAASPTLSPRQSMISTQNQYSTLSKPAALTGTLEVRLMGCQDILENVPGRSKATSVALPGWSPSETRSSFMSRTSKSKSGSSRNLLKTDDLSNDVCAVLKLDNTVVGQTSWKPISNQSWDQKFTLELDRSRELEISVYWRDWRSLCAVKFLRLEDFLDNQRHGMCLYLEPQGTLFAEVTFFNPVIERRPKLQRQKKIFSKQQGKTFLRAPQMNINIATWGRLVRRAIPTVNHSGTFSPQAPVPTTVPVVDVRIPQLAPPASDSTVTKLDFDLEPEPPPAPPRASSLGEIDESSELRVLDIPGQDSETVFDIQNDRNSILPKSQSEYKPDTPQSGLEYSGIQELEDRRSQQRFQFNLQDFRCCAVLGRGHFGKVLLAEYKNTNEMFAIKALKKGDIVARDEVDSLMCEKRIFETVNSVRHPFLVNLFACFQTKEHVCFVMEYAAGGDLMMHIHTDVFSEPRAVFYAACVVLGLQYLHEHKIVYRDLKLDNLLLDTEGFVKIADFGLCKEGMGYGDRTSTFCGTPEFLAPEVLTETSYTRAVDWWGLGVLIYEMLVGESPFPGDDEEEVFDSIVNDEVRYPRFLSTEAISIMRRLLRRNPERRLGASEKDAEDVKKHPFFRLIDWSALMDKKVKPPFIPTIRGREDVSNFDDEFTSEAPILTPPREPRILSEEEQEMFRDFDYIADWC

[3] = target: T1, Protein kinase C epsilon type (Homo sapiens, UniProt Q02156); experiment: Inhibition of PRKCE
T1 sequence (Q02156 whole entry): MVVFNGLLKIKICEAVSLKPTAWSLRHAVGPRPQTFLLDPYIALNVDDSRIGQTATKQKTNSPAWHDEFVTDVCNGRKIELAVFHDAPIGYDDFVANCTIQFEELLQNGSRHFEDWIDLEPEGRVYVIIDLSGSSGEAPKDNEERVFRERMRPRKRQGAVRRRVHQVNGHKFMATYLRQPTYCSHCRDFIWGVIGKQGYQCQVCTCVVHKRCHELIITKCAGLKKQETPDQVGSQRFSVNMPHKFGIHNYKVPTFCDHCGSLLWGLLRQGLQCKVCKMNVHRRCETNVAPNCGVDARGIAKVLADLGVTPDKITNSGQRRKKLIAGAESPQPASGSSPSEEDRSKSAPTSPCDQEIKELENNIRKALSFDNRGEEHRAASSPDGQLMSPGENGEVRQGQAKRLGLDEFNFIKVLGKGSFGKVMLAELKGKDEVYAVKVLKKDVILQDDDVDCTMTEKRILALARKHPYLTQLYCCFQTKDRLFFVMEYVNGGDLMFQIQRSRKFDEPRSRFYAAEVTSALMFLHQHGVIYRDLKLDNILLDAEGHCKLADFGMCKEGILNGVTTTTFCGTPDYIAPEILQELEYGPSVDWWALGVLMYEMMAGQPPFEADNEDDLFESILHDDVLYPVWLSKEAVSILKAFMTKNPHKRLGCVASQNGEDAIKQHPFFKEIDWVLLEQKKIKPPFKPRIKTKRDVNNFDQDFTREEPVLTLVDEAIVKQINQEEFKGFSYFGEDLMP

[4] = target: T2, cGMP-dependent protein kinase 2 (Homo sapiens, UniProt Q13237); experiment: Inhibition of PRKG2
T2 sequence (Q13237 whole entry): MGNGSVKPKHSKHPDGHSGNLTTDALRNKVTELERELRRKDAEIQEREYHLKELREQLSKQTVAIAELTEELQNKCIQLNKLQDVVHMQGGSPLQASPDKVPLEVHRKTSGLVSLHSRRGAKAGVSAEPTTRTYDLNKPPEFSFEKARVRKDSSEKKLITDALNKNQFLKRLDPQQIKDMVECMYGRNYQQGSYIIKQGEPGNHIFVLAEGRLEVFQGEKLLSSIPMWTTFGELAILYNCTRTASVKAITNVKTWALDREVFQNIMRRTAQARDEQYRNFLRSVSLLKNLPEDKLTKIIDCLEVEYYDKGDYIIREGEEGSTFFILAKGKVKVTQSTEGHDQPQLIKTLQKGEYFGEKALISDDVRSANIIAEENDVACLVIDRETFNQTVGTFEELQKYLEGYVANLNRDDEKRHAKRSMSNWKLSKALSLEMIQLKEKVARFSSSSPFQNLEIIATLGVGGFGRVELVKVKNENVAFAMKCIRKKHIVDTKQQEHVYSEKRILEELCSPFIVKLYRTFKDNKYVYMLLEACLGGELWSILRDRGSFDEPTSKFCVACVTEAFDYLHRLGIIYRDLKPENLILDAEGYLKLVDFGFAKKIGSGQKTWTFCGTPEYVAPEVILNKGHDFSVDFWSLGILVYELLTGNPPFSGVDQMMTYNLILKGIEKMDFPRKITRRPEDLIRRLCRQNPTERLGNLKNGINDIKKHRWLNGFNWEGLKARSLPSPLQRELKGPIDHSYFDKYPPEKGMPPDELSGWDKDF

Sequence of Rho-associated protein kinase 2 (O75116 whole entry): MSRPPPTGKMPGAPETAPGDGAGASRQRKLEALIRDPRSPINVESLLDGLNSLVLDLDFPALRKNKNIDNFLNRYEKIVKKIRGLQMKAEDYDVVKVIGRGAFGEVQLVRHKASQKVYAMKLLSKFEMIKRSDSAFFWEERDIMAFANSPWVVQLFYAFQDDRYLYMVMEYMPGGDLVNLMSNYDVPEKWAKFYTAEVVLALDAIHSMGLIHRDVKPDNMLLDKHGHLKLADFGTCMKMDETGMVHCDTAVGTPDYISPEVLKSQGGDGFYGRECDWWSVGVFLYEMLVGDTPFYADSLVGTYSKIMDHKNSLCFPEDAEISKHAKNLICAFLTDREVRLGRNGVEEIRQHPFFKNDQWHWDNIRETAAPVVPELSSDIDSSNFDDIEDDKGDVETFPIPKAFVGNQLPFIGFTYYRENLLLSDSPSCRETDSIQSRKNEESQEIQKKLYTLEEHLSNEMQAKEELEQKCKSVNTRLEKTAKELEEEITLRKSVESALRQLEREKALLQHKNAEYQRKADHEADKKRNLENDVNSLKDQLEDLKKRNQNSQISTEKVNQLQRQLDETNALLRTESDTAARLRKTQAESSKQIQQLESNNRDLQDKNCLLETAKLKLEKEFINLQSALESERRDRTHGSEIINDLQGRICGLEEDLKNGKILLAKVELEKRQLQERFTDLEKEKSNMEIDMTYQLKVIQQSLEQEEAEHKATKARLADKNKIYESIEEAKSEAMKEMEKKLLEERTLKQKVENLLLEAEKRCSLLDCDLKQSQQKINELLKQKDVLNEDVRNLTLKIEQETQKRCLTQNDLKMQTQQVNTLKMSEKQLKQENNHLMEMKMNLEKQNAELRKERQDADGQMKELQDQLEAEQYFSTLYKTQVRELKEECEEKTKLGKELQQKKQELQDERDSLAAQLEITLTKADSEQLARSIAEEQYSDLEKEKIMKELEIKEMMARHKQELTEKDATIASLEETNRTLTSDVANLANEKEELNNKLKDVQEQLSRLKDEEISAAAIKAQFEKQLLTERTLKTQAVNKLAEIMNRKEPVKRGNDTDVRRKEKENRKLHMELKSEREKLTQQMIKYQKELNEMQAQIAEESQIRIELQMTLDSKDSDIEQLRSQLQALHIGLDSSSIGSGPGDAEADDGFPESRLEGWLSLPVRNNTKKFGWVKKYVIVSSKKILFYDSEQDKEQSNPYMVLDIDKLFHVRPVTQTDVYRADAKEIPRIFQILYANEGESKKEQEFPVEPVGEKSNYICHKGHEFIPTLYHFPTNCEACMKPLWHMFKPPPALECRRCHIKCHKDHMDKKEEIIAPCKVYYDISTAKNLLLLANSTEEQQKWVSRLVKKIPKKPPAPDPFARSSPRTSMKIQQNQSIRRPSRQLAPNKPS

O=C(Nc1cc2cc[nH]c(=O)c2cc1Cl)C1CNCC1c1cccc(Br)c1 (racemic)
IC50 [1]: 2 nM
EC50 (Aorta): 63 nM
half-life (in vitro; liver microsomes): 43 min

CC(C)c1cccc(C2CNCC2C(=O)Nc2cc3cc[nH]c(=O)c3cc2Cl)c1 (racemic)
IC50 [1]: 6 nM

O=C(Nc1cc2cc[nH]c(=O)c2cc1Cl)C1CNCC1c1ccc(F)cc1 (racemic)
IC50 [1]: 9 nM
EC50 (Aorta): 160 nM
half-life (in vitro; liver microsomes): 61 min

CCc1cccc(C2CNCC2C(=O)Nc2cc3cc[nH]c(=O)c3cc2Cl)c1 (racemic)
IC50 [1]: 4 nM

O=C(Nc1cc2cc[nH]c(=O)c2cc1Cl)[C@H]1CNC[C@@H]1c1ccc(Cl)cc1
EC50 (Aorta): 40 nM

O=C(Nc1cc2cc[nH]c(=O)c2cc1Cl)C1CNCC1c1ccc(Br)cc1 (racemic)
IC50 [1]: 4 nM
EC50 (Aorta): 140 nM
half-life (in vitro; microsomes): 238 min

O=C(Nc1cc2cc[nH]c(=O)c2cc1Cl)C1CNCC1c1ccncc1 (racemic)
IC50 [1]: 26 nM
EC50 (Aorta): 66 nM

COc1cccc(C2CNCC2C(=O)Nc2cc3cc[nH]c(=O)c3cc2Cl)c1 (racemic)
IC50 [1]: 4 nM
EC50 (Aorta): 88 nM

O=C(Nc1cc2cc[nH]c(=O)c2cc1Cl)C1CNCCC1c1ccccc1 (racemic)
IC50 [1]: 6 nM
EC50 (Aorta): 55 nM
half-life (in vitro; liver microsomes): 37 min

O=C(Nc1cc2cc[nH]c(=O)c2cc1Cl)[C@@H]1CNC[C@H]1c1ccc(Cl)cc1
IC50 [1]: 4 nM
IC50 [2]: 14 nM
EC50 (Aorta): 23 nM
IC50 [3]: 1000 nM
IC50 [4]: 24 nM

O=C(Nc1cc2cc[nH]c(=O)c2cc1Cl)C1CNCC1c1cccc(C(F)(F)F)c1 (racemic)
IC50 [1]: 4 nM

Cc1cccc(C2CNCC2C(=O)Nc2cc3cc[nH]c(=O)c3cc2Cl)c1 (racemic)
IC50 [1]: 5 nM

O=C(Nc1cc2cc[nH]c(=O)c2cc1Cl)C1CNCC1c1cccnc1 (racemic)
IC50 [1]: 8 nM
EC50 (Aorta): 150 nM
half-life (in vitro; microsomes): 49 min

O=C(Nc1cc2cc[nH]c(=O)c2cc1Cl)C1CNCC1c1ccc(Cl)cc1Cl (racemic)
IC50 [1]: 8 nM

O=C(Nc1cc2cc[nH]c(=O)c2cc1Cl)C1(c2ccccc2)CCNCC1
IC50 [1]: 230 nM

O=C(Nc1cc2cc[nH]c(=O)c2cc1Cl)[C@@H]1CCCNC1
IC50 [1]: 47 nM
EC50 (Aorta): 550 nM
half-life (in vitro; liver microsomes): 71 min

O=C(Nc1cc2cc[nH]c(=O)c2cc1Cl)C1CNCC1c1cccc(OC(F)(F)F)c1 (racemic)
IC50 [1]: 7 nM

O=C(Nc1cc2cc[nH]c(=O)c2cc1Cl)C1CNCC1c1ccccn1 (racemic)
IC50 [1]: 14 nM
EC50 (Aorta): 210 nM
half-life (in vitro; liver microsomes): 58 min

O=C(Nc1cc2cc[nH]c(=O)c2cc1Cl)C1CNCC1c1ccc(Cl)cc1 (racemic)
IC50 [1]: 6 nM
EC50 (Aorta): 60 nM
half-life (in vitro; liver microsomes): > 300 min

O=C(Nc1cc2cc[nH]c(=O)c2cc1Cl)C1CNCC1c1ccccc1 (racemic)
IC50 [1]: 6 nM
EC50 (Aorta): 89 nM
half-life (in vitro; liver microsomes): 130 min

O=C(Nc1cc2cc[nH]c(=O)c2cc1Cl)C1(c2ccccc2)CCNC1 (centres undefined)
IC50 [1]: 240 nM

CNC(C(=O)Nc1cc2cc[nH]c(=O)c2cc1Cl)c1ccccc1 (centres undefined)
EC50 (Aorta): 170 nM
half-life (in vitro; microsomes): 15 min

NC(C(=O)Nc1cc2cc[nH]c(=O)c2cc1Cl)c1cccc(Cl)c1 (centres undefined)
IC50 [1]: 15 nM

CC(C)(C)c1cccc(C2CNCC2C(=O)Nc2cc3cc[nH]c(=O)c3cc2Cl)c1 (racemic)
IC50 [1]: 11 nM
